Assay results: patent US20110053995A1, “BENZENESULFONANILIDE COMPOUND INHIBITORS OF UREA TRANSPORTERS” (THE REGENTS OF THE UNIVERSITY OF CALIFORNIA, priority 2006, published 2011)

Test system: RBCs from wild-type mice
Test: Osmotic water permeability, RBCs from wild-type mice
Assay type: cell-based, mouse
Settings: inhibitors 25 μM, phloretin 0.7 mM, 10° C.
Method: FIGS. 8A-B illustrate UT-B-facilitated water transport by ‘chemical UT-B knock-out’. Osmotic water permeability was measured from the time course of RBC volume in response to a 250-mM inwardly directed sucrose gradient. FIG. 8A presents representative traces of mouse RBC water permeability performed at 10° C., with genotypes and conditions indicated. Inhibitors ureainh-201 and ureainh-302 were used at 25 μM. FIG. 8B presents osmotic water permeability coefficients (Pf) from experiments as illustrated in FIG. 8A (±SE, 3-7 curves per group of RBCs pooled from 4 mice per genotype). *, P<0.01 compared with no inhibitor; #, P<0.01 compared with wild-type (no inhibitor).
RBC urea and water permeabilities were assayed by stopped-flow light scattering using a Hi-Tech Sf-51 instrument (Wiltshire, UK). For measurement of urea permeability, dilutions of whole blood (human or mouse; see Example 1) in PBS (hematocrit: approximately 0.5%) were incubated with test compounds for 5 min and then subjected to a 250-mM inwardly directed gradient of urea. After an initial osmotic shrinking phase, the kinetics of increasing cell volume caused by urea influx were measured as the time-course of 90° scattered light intensity at 530 nm, with increasing cell volume resulting in reduced scattered light intensity. As a positive control, 0.7 mM phloretin was added to the RBC suspension prior to stopped-flow experiments. Measurements of water permeability were carried out similarly, with sucrose (cell-impermeant) used instead of urea to establish a 250-mM osmotic gradient. As a positive control, HgCl2 (0.3 mM) was added to the RBC suspension prior to stopped-flow measurements. Osmotic water permeability coefficients (Pf) were computed from light scattering data as described (van Hoek et al., J Biol Chem. 267:18267-69 (1992)).
This example describes chemical knock-out of UT-B by UT-B inhibitors in RBCs and the effect on UT-B-facilitated Water transport. […] Osmotic water permeability was measured by stopped-flow light scattering in RBCs from wild-type and AQP1-null mice as shown in FIG. 8A. […] AQP1-null RBCs had greater than 5-fold reduced Pf compared to wild-type RBCs.

Cc1ccc(Nc2nnc(-c3ccc(C(N)=O)cc3)c3ccccc23)cc1 [ureainh-302]
effect on water transport: little effect on water transport

NC(=O)CSc1oc(-c2ccccc2)nc1S(=O)(=O)c1ccc(Br)cc1 [ureainh-101]
effect on water transport: little effect on water transport
